Measured values published in the supplement of paper PMC7840683.
Counter-ions that a name gives are not always drawn. ± gives the standard deviation of the averaged measurements.

Test system: HepaRG
Assay: LDH release cytotoxicity, % of total lysis control; higher = more cytotoxic
Details: 48 h
How it was run: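 Single-lot HepaRG cells on collagen I-coated 96-well plates were exposed for 48 h in duplicate, in serum-free induction medium with 0.5% DMSO, to eight-point half-log series (test chemicals top 100 µM). Total lysis wells received 0.1% Triton X, and LDH leakage into 50 µL spent medium was read as resorufin fluorescence (CytoTox-ONE, Tecan Safire). Percent cytotoxicity was normalized to on-plate vehicle and total lysis controls and averaged over the duplicates.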

CC1COC(Cn2cncn2)(c2ccc(Oc3ccc(Cl)cc3)cc2Cl)O1 (stereo not given) [Difenoconazole]
Details | LDH release cytotoxicity [%]
0.03162 µM | -1.39 ± 1.3
0.1 µM | -1.4 ± 0.88
0.3162278 µM | -1.37 ± 0.096
1 µM | -1.47 ± 0.12
3.16228 µM | -0.57 ± 1.1
10 µM | -0.701 ± 0.24
31.6228 µM | -1.41 ± 0.25
100 µM | -0.14 ± 0.82

CCCCCOC(C)=O [Pentyl acetate]
Details | LDH release cytotoxicity [%]
0.03162 µM | -10.9 ± 0.81
0.1 µM | -10.5 ± 0.81
0.3162278 µM | -10.2 ± 1.1
1 µM | -11 ± 1.1
3.16228 µM | -10.3 ± 0.5
10 µM | -10.9 ± 1.1
31.6228 µM | -10.3 ± 0.19
100 µM | -10.02 ± 0.093

Cc1cccc(C)c1N [2,6-Dimethylaniline]
Details | LDH release cytotoxicity [%]
0.03162 µM | -1.3 ± 1.2
0.1 µM | -0.274 ± 0.54
0.3162278 µM | -0.695 ± 1.3
1 µM | -2 ± 0.2
3.16228 µM | -1.29 ± 0.67
10 µM | -1.03 ± 0.33
31.6228 µM | -0.842 ± 0.55
100 µM | 3.28 ± 2.6

COP(=S)(OC)Oc1ccc([N+](=O)[O-])c(C)c1 [Fenitrothion]
Details | LDH release cytotoxicity [%]
0.03162 µM | -1.98 ± 1.1
0.1 µM | -2.13 ± 1.2
0.3162278 µM | -0.603 ± 0.67
1 µM | -1.11 ± 0.74
3.16228 µM | -0.939 ± 0.39
10 µM | -0.576 ± 0.69
31.6228 µM | -0.104 ± 0.3
100 µM | 0.45 ± 0.39

Cc1cnc(C2=NC(=O)C(C)(C(C)C)N2)c(C(=O)O)c1 (stereo not given) [Imazapic]
Details | LDH release cytotoxicity [%]
0.03162 µM | -0.83 ± 0.63
0.1 µM | -2.27 ± 0.52
0.3162278 µM | -1.6 ± 0.34
1 µM | -1.46 ± 0.11
3.16228 µM | -1.69 ± 0.21
10 µM | -0.919 ± 0.055
31.6228 µM | -0.228 ± 0.13
100 µM | 0.017 ± 1.6

CCOP(=O)(OCC)Oc1nc(Cl)c(Cl)cc1Cl [Chlorpyrifos oxon]
Details | LDH release cytotoxicity [%]
0.03162 µM | -1.8 ± 0.21
0.1 µM | -1.33 ± 0.45
0.3162278 µM | -1.43 ± 0.73
1 µM | -1.55 ± 0.93
3.16228 µM | -0.451 ± 0.67
10 µM | 0.221 ± 0.3
31.6228 µM | 0.828 ± 0.99
100 µM | 2.9 ± 1.2

CCCCCCCCCCCCCCCCOS(=O)(=O)O [Sodium hexyldecyl sulfate]
Details | LDH release cytotoxicity [%]
0.01581 µM | -0.927 ± 0.59
0.05 µM | -0.892 ± 0.52
0.1581139 µM | -1.25 ± 0.18
0.5 µM | -1.53 ± 0.15
1.5811388 µM | -0.623 ± 0.48
5 µM | -0.974 ± 0.097
15.8114 µM | -0.978 ± 0.78
50 µM | 10.6 ± 1.9

CC(C)(C)CC(C)(C)c1ccc(O)c(-n2nc3ccccc3n2)c1 [Octrizole]
Details | LDH release cytotoxicity [%]
0.03162 µM | -2.72 ± 1.6
0.1 µM | -2.89 ± 0.71
0.3162278 µM | -2.68 ± 0.86
1 µM | -3.09 ± 0.49
3.16228 µM | -3.1 ± 0.38
10 µM | -2.49 ± 0.85
31.6228 µM | -1.9 ± 1.4
100 µM | -2.37 ± 0.56

CC1CC2C3CCC4=CC(=O)C=CC4(C)C3(F)C(O)CC2(C)C1(O)C(=O)COP(=O)(O)O (stereo not given) [Dexamethasone sodium phosphate]
Details | LDH release cytotoxicity [%]
0.03162 µM | -1.41 ± 1.1
0.1 µM | -1.19 ± 0.21
0.3162278 µM | -0.881 ± 0.18
1 µM | -1.653 ± 0.0034
3.16228 µM | -1.03 ± 0.27
10 µM | -1.06 ± 0.61
31.6228 µM | -0.535 ± 0.093
100 µM | -0.295 ± 0.86

CC(C)(C)c1cc(C(C)(C)C)c(O)c(C(C)(C)C)c1 [2,4,6-Tris(tert-butyl)phenol]
Details | LDH release cytotoxicity [%]
0.03162 µM | -0.34 ± 0.36
0.1 µM | -0.143 ± 0.55
0.3162278 µM | -0.16 ± 0.35
1 µM | -0.404 ± 0.24
3.16228 µM | -0.476 ± 0.26
10 µM | 0.204 ± 1.6
31.6228 µM | -0.0327 ± 1.8
100 µM | 0.75 ± 0.75

O=C(O)Cn1c(=O)n(Cc2ccc(Br)cc2F)c(=O)c2ccc(Cl)cc21 [Zenarestat]
Details | LDH release cytotoxicity [%]
0.03162 µM | -0.858 ± 0.89
0.1 µM | -0.293 ± 1.2
0.3162278 µM | -0.841 ± 0.43
1 µM | -0.408 ± 0.56
3.16228 µM | -0.109 ± 1.5
10 µM | 0.443 ± 0.12
31.6228 µM | -0.513 ± 0.13
100 µM | 0.792 ± 0.4

O=C(O)c1cccnc1 [Nicotinic acid]
Details | LDH release cytotoxicity [%]
0.0327296 µM | -1.39 ± 0.94
0.1035 µM | -1.35 ± 0.33
0.327296 µM | -1.95 ± 0.85
1.035 µM | -1.67 ± 0.46
3.27296 µM | -1.83 ± 0.44
10.35 µM | -0.596 ± 0.74
32.729574 µM | -0.819 ± 0.39
103.5 µM | 0.214 ± 0.71

COC(=O)NC(=S)Nc1ccccc1NC(=S)NC(=O)OC [Thiophanate-methyl]
Details | LDH release cytotoxicity [%]
0.03162 µM | -1.04 ± 0.2
0.1 µM | -0.552 ± 0.3
0.3162278 µM | -0.928 ± 0.03
1 µM | -1.83 ± 0.058
3.16228 µM | -0.882 ± 0.41
10 µM | 0.238 ± 0.4
31.6228 µM | 0.796 ± 0.9
100 µM | 8.47 ± 0.31

CNC(=O)Oc1cccc(N=CN(C)C)c1 [Formetanate hydrochloride]
Details | LDH release cytotoxicity [%]
0.0317809 µM | -8.9 ± 1.2
0.1005 µM | -7.63 ± 0.9
0.317809 µM | -7.59 ± 0.12
1.005 µM | -7.51 ± 1
3.17809 µM | -6.9 ± 0.096
10.05 µM | -5.88 ± 0.74
31.7809 µM | -6.15 ± 0.89
100.5 µM | -5.62 ± 1.4

CC(C)=CCCC(C)CCO (stereo not given) [Citronellol]
Details | LDH release cytotoxicity [%]
0.03162 µM | -1.93 ± 0.69
0.1 µM | -2.94 ± 0.29
0.3162278 µM | -2.48 ± 0.3
1 µM | -2.8 ± 0.43
3.16228 µM | -2.02 ± 0.57
10 µM | -2.14 ± 0.43
31.6228 µM | -1.61 ± 0.76
100 µM | 0.398 ± 0.43

O=C(Nc1ccccc1)Nc1ccnc(Cl)c1 [Forchlorfenuron]
Details | LDH release cytotoxicity [%]
0.03162 µM | -0.561 ± 0.058
0.1 µM | -0.953 ± 0.64
0.3162278 µM | -0.719 ± 0.22
1 µM | -0.995 ± 0.79
3.16228 µM | -0.25 ± 0.84
10 µM | -0.369 ± 0.16
31.6228 µM | 6.54 ± 0.27
100 µM | 61.5 ± 5.7

CC(=O)OC1CC(C)OC(C)O1 (stereo not given) [Dimethoxane]
Details | LDH release cytotoxicity [%]
0.03162 µM | -0.261 ± 1.2
0.1 µM | -0.746 ± 0.9
0.3162278 µM | -1.64 ± 0.38
1 µM | -1.54 ± 0.41
3.16228 µM | -1.77 ± 0.27
10 µM | -1.72 ± 0.61
31.6228 µM | -1.51 ± 0.86
100 µM | 4.58 ± 1.8

CCSC(=O)N1CCCCCC1 [Molinate]
Details | LDH release cytotoxicity [%]
0.03162 µM | -2.17 ± 0.39
0.1 µM | -2.09 ± 0.56
0.3162278 µM | -1.9 ± 0.36
1 µM | -2.25 ± 0.77
3.16228 µM | -1.81 ± 0.052
10 µM | -1.34 ± 0.51
31.6228 µM | -0.237 ± 0.64
100 µM | 1.3 ± 0.16

Cc1ccc([N+](=O)[O-])cc1 [4-Nitrotoluene]
Details | LDH release cytotoxicity [%]
0.03162 µM | -0.445 ± 0.2
0.1 µM | -1.19 ± 1.1
0.3162278 µM | -0.0775 ± 0.88
1 µM | -0.642 ± 0.3
3.16228 µM | -0.56 ± 0.64
10 µM | -0.236 ± 0.032
31.6228 µM | -0.713 ± 0.035
100 µM | 1.62 ± 0.18

CCOC(=O)CC(CC(=O)OCC)(OC(C)=O)C(=O)OCC [Acetyltriethyl citrate]
Details | LDH release cytotoxicity [%]
0.03162 µM | -2.01 ± 1.3
0.1 µM | -1.76 ± 0.41
0.3162278 µM | -1.48 ± 0.41
1 µM | -1.13 ± 1.1
3.16228 µM | -0.615 ± 0.31
10 µM | -1.09 ± 1.7
31.6228 µM | 0.655 ± 0.037
100 µM | 0.942 ± 0.48
